Data on 16 compounds can be found in ChEMBL document CHEMBL1147552, “Novel CCR1 antagonists with improved metabolic stability” (Bioorg Med Chem Lett, 2004).

Converted amounts (≈) assume the structure as drawn. Where only a bound is given, the exact number is not on record here.

The target in data set [1] is T1, C-C chemokine receptor type 1 (Homo sapiens, UniProt P32246).
T1 sequence (P32246 whole entry): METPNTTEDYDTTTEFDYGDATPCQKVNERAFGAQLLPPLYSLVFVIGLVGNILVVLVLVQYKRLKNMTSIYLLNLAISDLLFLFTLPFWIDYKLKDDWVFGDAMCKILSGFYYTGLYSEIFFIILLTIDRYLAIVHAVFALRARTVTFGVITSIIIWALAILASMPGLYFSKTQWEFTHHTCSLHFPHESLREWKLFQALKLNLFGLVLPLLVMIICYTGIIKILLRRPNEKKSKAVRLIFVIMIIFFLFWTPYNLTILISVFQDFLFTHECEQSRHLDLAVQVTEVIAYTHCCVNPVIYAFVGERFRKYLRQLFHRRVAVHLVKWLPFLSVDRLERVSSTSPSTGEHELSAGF
Description: Inhibition of CCL3 binding to C-C chemokine receptor type 1.

Another data set is filed under the species Homo sapiens. Conditions: Liver, Microsome.
A short description of data set [2]: Aqueous solubility of compound was determined.
A short description of data set [3]: Plasma clearance of compound was determined in monkey. To be noted: cercopithecidae.
The nature of data set [4]: Volume of distribution of compound was determined in monkey. Conditions: cercopithecidae, in vivo.
A short description of data set [5]: Plasma clearance of compound was determined in dog.
A short description of data set [6]: Volume of distribution of compound was determined in dog. To be noted: in vivo.
Data set [7] can be described thus: Elimination Half-life of compound was determined in dog. To be noted: in vivo.
Data set [8] is described as follows: Oral bioavailability in monkey. Conditions: cercopithecidae, in vivo.

Description for Homo sapiens: In vitro oxidative metabolic stability measured by the rate of drug consumption in human liver microsomes as intrinsic clearance values

One may read the IC50 as the midpoint of a concentration-inhibition curve. The compound `CC(C)(O)CCC(C[C@H](O)[C@H](Cc1ccc(F)cc1)NC(=O)c1cnc2ccccc2n1)C(N)=O` (stereo partly specified) returned an IC50 in data set [1] above 25000 nM.
For the compound `CC(C)(O)CC[C@H](C[C@H](O)[C@H](Cc1ccccc1)NC(=O)c1cnc2ccccc2n1)C(N)=O`, the IC50 in [1] was 580 nM. For the same compound, the CL (mL.min-1.kg-1) in the data set filed under Homo sapiens was found to be 4.9.
The compound `CC(C)(F)CCC(C[C@H](O)[C@H](Cc1ccccc1)NC(=O)c1cnc2ccccc2n1)C(=O)NO` (stereo partly specified) came in with an IC50 in [1] of 27 nM.
On the same count and under the same terms, the value for `CC(C)(F)CC[C@H](C[C@H](O)[C@H](Cc1ccccc1)NC(=O)c1cnc2ccccc2n1)C(N)=O` was 9 nM; that for `NC(=O)C(C[C@H](O)[C@H](Cc1ccccc1)NC(=O)c1cnc2ccccc2n1)C1CCC(F)(F)CC1` (stereo partly specified) was 20 nM.
`CN1CCN(C(=O)C(CCC(C)(C)F)C[C@H](O)[C@H](Cc2ccccc2)NC(=O)c2cnc3ccccc3n2)CC1` (stereo partly specified) showed an IC50 in [1] of 5600 nM. The CL (mL.min-1.kg-1) in the data set listed under Homo sapiens was 647.
The compound `CC(C)(F)CCC(C[C@H](O)[C@H](Cc1ccccc1)NC(=O)c1cnc2ccccc2n1)C(=O)NN` (stereo partly specified) returned an IC50 in [1] of 7 nM. In the data set listed under Homo sapiens, this compound showed a CL (mL.min-1.kg-1) of 32.7.
The compound `CCNC(=O)C(CCC(C)(C)F)C[C@H](O)[C@H](Cc1ccccc1)NC(=O)c1cnc2ccccc2n1` (stereo partly specified) gave an IC50 in data set [1] of 75 nM.
In [1], `CC(C)(F)CCC(C[C@H](O)[C@H](Cc1ccccc1)NC(=O)c1cnc2ccccc2n1)C(=O)N1CCCC1` (stereo partly specified) returned an IC50 of 2320 nM.
In the case of `CC(C)(F)CCC(C[C@H](O)[C@H](Cc1ccccc1)NC(=O)c1cnc2ccccc2n1)C(=O)NCc1ccccc1` (stereo partly specified), the IC50 in data set [1] stood at 850 nM.
In turn, `NC(=O)C(C[C@H](O)[C@H](Cc1ccccc1)NC(=O)c1cnc2ccccc2n1)C1(O)CCC(F)(F)CC1` (stereo partly specified) yielded an IC50 in [1] of 56 nM. Moreover, in the data set listed under Homo sapiens, the CL (mL.min-1.kg-1) stood at 6.4.
Consider `NC(=O)C(C[C@H](O)[C@H](Cc1ccccc1)NC(=O)c1cnc2ccccc2n1)C1(O)CCCCC1` (stereo partly specified), for which, in data set [1], the IC50 turned out to be 54 nM. This compound also showed a CL (mL.min-1.kg-1) in the data set filed under Homo sapiens of 47.7.
A word on the solubility: it is the concentration that dissolves in the medium under given conditions. What is called clearance is a measure of how efficiently the substance is removed, as volume per time. For orientation: Vd means a proportionality between amount in the body and measured concentration, not a real space. In general, half-life refers to the time in which the quantity being followed falls by half. A word on the bioavailability: it is the share of a dose that reaches the circulation, judged against a reference dose that is usually intravenous. In the case of `O=C(N[C@@H](Cc1ccccc1)[C@@H](O)CC(C(=O)NO)C1CCC(F)(F)CC1)c1cnc2ccccc2n1` (stereo partly specified), the IC50 in data set [1] is 7 nM. This compound gave a solubility in [2] of 12 µg/mL (≈ 23.4 µM). The clearance in data set [3] was determined as 33 mL/min/kg; in data set [5] it was 38 mL/min/kg. The CL (mL.min-1.kg-1) in the data set listed under Homo sapiens was found to be 6.1. Further, the Vd turned out to be 1.8 L/kg in [4] and 1.3 L/kg in [6]. In [7], this compound had a half-life of 30 min. In data set [8], this compound registered a bioavailability below 1.1%.
`CC(C)(O)CCC(C[C@H](O)[C@H](Cc1ccccc1F)NC(=O)c1cnc2ccccc2n1)C(N)=O` (stereo partly specified): the IC50 in [1] is 52 nM. For the same compound, the CL (mL.min-1.kg-1) in the data set filed under Homo sapiens was 16.5.
For `NC(=O)C(C[C@H](O)[C@H](Cc1ccccc1)NC(=O)c1cnc2ccccc2n1)C1CCCCC1` (stereo partly specified), in that order: 8 nM and 242.
On to `NC(=O)C(C[C@H](O)[C@H](Cc1ccccc1)NC(=O)c1cnc2ccccc2n1)C1CCOCC1` (stereo partly specified), for which the IC50 in data set [1] was found to be 3460 nM.
